Data published in patent publication US20200048668A1, “BIOLOGICAL PRODUCTION OF ß-LACTONES” (Regents of the University of Minnesota, priority 2018, published 2020).

Experiments:
Xc OleB = Xc OleB (Xanthomonas campestris pv. campestris, UniProt Q8PDW8); experiment: OleB reactions with haloalkanes (GC-FID/MS); type: biochemical; settings: monitored by GC-FID/MS
Protocol: The following haloalkane substrates were dissolved in ethanol to a concentration of 5 mM for testing with Xc OleB: 1-iodobutane, 1,3-diiodobutane,1-chlorobutane, 1-bramopentane, 1-chlorohexane, 1-bromooctane, 1-iodoundecane, and 7-(bromomethyl)pentadecane. Reactions were carried out in glass GC vials contained purified OleB (40 μg) and 10 μL of substrate in 500 μL, of 200 mM NaCl, 20 mM NaPO4 at pH 7.4. Reactions were incubated at room temperature overnight, followed by extraction with tert-butyl methylether (MTBE). The MTBE extract was transferred to a clean GC vial and analyzed by gas chromatography/mass spectrometry (GC/MS Agilent 7890a & 5975c with an Agilent J&W bd-ms1 column 30 m length, 0.25 mm diameter, 0.25 μm film).

human 20S protease = human 20S protease (Homo sapiens, UniProt P28072+P28074+Q99436); settings: cited from earlier work
X. campestris OleB = X. campestris OleB (Xanthomonas campestris pv. campestris, UniProt Q8PDW8); experiment: OleB reactions with β-lactone followed by 1H-NMR; type: biochemical; settings: for β-lactone that underwent decarboxylation to cis-olefin: 1.0 mg OleB, overnight, room temperature, 1H-NMR
Sequence of X. campestris OleB (Q8PDW8 whole entry): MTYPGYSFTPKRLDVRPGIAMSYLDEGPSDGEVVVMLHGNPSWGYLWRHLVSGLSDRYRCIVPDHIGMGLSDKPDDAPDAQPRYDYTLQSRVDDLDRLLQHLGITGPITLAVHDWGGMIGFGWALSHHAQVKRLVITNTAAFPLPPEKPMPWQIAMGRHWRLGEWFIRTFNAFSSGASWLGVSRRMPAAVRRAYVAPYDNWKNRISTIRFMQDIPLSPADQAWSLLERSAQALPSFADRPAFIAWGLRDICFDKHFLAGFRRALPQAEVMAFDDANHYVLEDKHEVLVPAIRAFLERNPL

[1] = biological target: ClpP protease of Mycobacterium tuberculosis (Mycobacterium tuberculosis, UniProt P9WPC3+P9WPC5); settings: cited from earlier work
Sequence of ClpP protease of Mycobacterium tuberculosis (P9WPC5 whole entry): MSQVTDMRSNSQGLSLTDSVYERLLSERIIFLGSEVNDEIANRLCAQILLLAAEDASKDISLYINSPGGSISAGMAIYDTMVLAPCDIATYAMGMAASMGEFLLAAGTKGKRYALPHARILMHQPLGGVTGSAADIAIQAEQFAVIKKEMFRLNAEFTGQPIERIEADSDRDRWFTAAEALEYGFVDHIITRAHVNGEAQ
Sequence of ClpP protease of Mycobacterium tuberculosis (P9WPC3 whole entry): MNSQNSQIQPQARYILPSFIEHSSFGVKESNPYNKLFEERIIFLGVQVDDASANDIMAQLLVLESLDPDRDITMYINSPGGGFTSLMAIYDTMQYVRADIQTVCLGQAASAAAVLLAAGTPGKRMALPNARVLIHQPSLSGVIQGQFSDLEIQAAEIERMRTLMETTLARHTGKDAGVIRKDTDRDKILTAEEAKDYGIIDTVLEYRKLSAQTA

OleB = OleB (Xanthomonas campestris pv. campestris, UniProt Q8PDW8); experiment: MALDI-TOF of acyl-enzyme intermediate with haloalkane; type: binding; settings: wild type OleB
Sequence of OleB (Q8PDW8 whole entry): as the sequence (Q8PDW8 whole entry) above
Protocol: To identify an acyl-enzyme intermediate, Matrix Assisted Laser Desorption Ionization (MALDI) was carried out on wild type OleB and OleBD114A proteins that had been reacted with 7-(bromornethyl)pentadecane (TCI). These two substrates contain the reactive bromomethyl group in the middle of a long alkyl chain, thereby mimicking the β-lactone substrate of OleB. Reactions contained 500 μM substrate and 40 μg of OleB in 100 μL of buffer (20 mM NaCl, 5 mM NaPO4, pH 7.4). Reaction were prepared for MALDI using standard C4 ZipTip (Millipore) procedures and spotted on a plate with sinapinic acid. Samples were analyzed on a Bruker Autoflex Speed MALDI-TOF.

human pancreatic lipase = human pancreatic lipase (Homo sapiens, UniProt P16233); settings: cited from earlier work
pancreatic lipase = biological target: T1, pancreatic lipase (Homo sapiens, UniProt P16233); experiment: Lipase inhibition by β-lactones in microtiter well plates; type: biochemical; settings: FIGS. 13A-E
T1 sequence (P16233 17-465): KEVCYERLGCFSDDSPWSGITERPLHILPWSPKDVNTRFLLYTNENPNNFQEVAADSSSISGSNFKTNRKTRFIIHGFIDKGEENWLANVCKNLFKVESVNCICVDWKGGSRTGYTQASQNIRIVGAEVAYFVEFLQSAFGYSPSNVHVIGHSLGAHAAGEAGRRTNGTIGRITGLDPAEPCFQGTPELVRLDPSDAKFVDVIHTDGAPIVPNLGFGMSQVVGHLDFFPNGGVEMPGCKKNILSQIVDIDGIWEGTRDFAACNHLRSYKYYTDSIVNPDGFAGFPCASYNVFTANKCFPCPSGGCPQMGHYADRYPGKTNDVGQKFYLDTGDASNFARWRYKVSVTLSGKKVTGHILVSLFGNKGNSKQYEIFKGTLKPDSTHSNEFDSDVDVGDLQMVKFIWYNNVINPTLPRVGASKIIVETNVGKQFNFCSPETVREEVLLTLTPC
Protocol: Cis and trans-isomers of β-lactones were synthesized and tested separately. […] These reactions were conducted in microtiter well plates so the inhibition of the lipase can be measured in a high-throughput manner such that hundreds or thousands of β-lactones can be rapidly screened. In addition, fatty acyl-CoA substrates can be combined with OleADC and lipase and lipase inhibition can be detected. Moreover, lipase may be substituted with proteasomes, penicillin binding proteins, pathogenic bacteria, or cancer cells and inhibitory activity of one or a plurality of β-lactones detected.

Sequence of Xc OleB (Q8PDW8 whole entry): as the sequence (Q8PDW8 whole entry) above

In the case of `CCCCCl` [1-chlorobutane], the “dehalogenase activity towards haloalkane substrate” value (Xc OleB) is reported as “No detectable activity”.
For salinosporamide, the “inhibition of human 20S protease function” value (human 20S protease) is listed as “inhibit human 20S protease function”.
For `CCCCI` [1-iodobutane], the “dehalogenase activity towards haloalkane substrate” value (Xc OleB) was “No detectable activity”.
For `CCCCCCCCCC1OC(=O)C1CCCCCCCC` (stereo not drawn) [cis-β-lactone, 3-octyl-4-nonyl-2-oxetanone], the “β-lactone that underwent decarboxylation to cis-olefin” value (X. campestris OleB) was 47%, the “cis-β-lactone starting material converted to cis-olefin” value (X. campestris OleB; 2 mg of OleB) was 54% and the “cis-β-lactone starting material converted to cis-olefin” value (X. campestris OleB; 4 mg of OleB) was 63%.
For `CCCC1OC(=O)C1Cc1ccccc1` (stereo not shown) [3-benzyl, 4-propyl oxetanone], the “inhibition of ClpP protease” value [1] is given as “inhibit the ClpP protease of Mycobacterium tuberculosis”.
In the case of `CCCCCCCCCCCI` [1-iodoundecane], the “dehalogenase activity towards haloalkane substrate” value (Xc OleB) is reported as “No detectable activity”.
In the case of `CCCCBr` [1-bromobutane], the “dehalogenase activity towards haloalkane substrate” value (Xc OleB) is reported as “No detectable activity”.
With `CCCCCCCCC(CBr)CCCCCC` (stereo not shown) [7-(bromomethyl)pentadecane] the “acyl-enzyme intermediate formation (mass shift)” value (OleB) was “forms a stable acyl-enzyme intermediate” and the “dehalogenase activity towards haloalkane substrate” value (Xc OleB) was “No detectable activity”.
For `CCCCCCCl` [1-cholohexane], the “dehalogenase activity towards haloalkane substrate” value (Xc OleB) was “No detectable activity”.
For `CCCCCCBr` [1-bromohexane], the “dehalogenase activity towards haloalkane substrate” value (Xc OleB) was “No detectable activity”.
In the case of `CCCCC/C=C\C/C=C\C[C@@H](C[C@@H]1OC(=O)[C@H]1CCCCCC)OC(=O)[C@H](CC(C)C)NC=O` [lipstatin], the “inhibition of human pancreatic lipase” value (human pancreatic lipase) is given as “inhibiting human pancreatic lipase”.
With `CCCCCCCCCC1OC(=O)C1CCCCCCCC` (stereo not drawn) [trans-β-lactone, 3-octyl-4-nonyl-2-oxetanone] the “β-lactone that underwent decarboxylation to cis-olefin” value (X. campestris OleB) was 4%.
In the case of `CCCCCCCCCCC[C@@H](C[C@@H]1OC(=O)[C@H]1CCCCCC)OC(=O)[C@H](CC(C)C)NC=O` [Orlistat, tetrahydrolipstatin], the lipase inhibitory activity (pancreatic lipase) is reported as “inhibits pancreatic lipase at nanogram levels”.
